According to patent US9045507B2, “Coumarin-based amino acids for use in enzyme activity and substrate specificity assays” (UNIVERSITY OF SOUTHERN CALIFORNIA, priority 2005, dated 2015):
Where a SMILES comes first, the peptide text is derived from it. [ ]: non-standard residue; d: D form. pY = N[C@@H](Cc1ccc(OP(=O)(O)O)cc1)C(=O)O

Tests used:
Format in all cases: biochemical
[1] = molecular target: protein tyrosine kinase Csk (Homo sapiens, UniProt P41240); assay: Kinase assay: MU as substrate for Csk; conditions: fluorescence decrease, ATP, pH 6.8
Experimental: Currently kinases assays are done using radioactive ATP. We envision that a highly sensitive fluorescence based assay would be more convenient. MU, an analog of CAP, was tested as a substrate for the protein tyrosine kinase Csk, to check the viability of the idea (FIG. 8). […] In addition, the fluorinated derivatives also serve as sensitive fluorescent assays for PTK activity.
Stock solutions of MU were prepared in DMSO to make 1 and 10 mM solutions. For enzymatic assays, various aliquots of each substrate and DMSO (to a total of 5 μL) were placed on a 96 well plate, incubated with 75 μL buffer (30 mM HEPES, 5 mM MgCl2, 0.01% Brij 35, pH 6.8) for 5 mins, treated with 1 μL of 10 mM ATP, followed by 20 μL of 12.8 nM Csk. The decrease in signal (fluorescence) due to substrate phosphorylation was measured every 60 s for 30 min. Each reaction was run in triplicate and the results averaged. Standard curves were prepared using authentic samples of the appropriate substrate, relative fluorescence units were converted into concentration of substrate left unreacted, and the resulting data was fit to the Michaelis-Menten equation, providing kinetic parameters for each substrate.

[2] = molecular target: T1, Protein tyrosine phosphatase from Yersinia enterocolitica (YOP) (Yersinia enterocolitica, UniProt P15273); assay: Enzyme activity assay: PTP-catalyzed hydrolysis of substrates by YOP; conditions: pH 7.1, room temperature; for Km: read-out: Km (best fit to the Michaelis-Menten equation)
T1 construct: purchased Calbiochem
T1 sequence (P15273 whole entry): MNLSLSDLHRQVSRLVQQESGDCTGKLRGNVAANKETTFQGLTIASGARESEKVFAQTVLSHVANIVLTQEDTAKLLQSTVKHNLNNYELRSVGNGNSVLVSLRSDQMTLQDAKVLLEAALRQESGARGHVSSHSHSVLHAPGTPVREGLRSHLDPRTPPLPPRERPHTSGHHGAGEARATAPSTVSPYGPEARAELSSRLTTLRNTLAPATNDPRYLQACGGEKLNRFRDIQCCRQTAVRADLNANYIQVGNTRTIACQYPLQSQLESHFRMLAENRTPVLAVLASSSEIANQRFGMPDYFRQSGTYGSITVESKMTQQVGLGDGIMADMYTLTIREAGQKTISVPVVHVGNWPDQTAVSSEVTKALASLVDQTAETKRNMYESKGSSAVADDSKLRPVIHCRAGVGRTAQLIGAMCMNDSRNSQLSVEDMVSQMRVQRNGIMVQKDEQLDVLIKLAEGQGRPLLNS
Source text: (§1) Protein tyrosine phosphatase from Yersinia enterocolitica (YOP)^16 and human T-cell PTP (TCPTP)^17 were obtained from Calbiochem in purified form and used as received. Reagents for solid phase peptide synthesis including Fmoc protected amino acids and Rink Amide resin were obtained from Novabiochem and used without further purification. Trichloroethanol (TCE), resorcinol, dicyclohexylcarbodiimide (DCC) and N,N-dimethylaminopyridine (DMAP) were obtained from Lancaster, isopropenyl chloroformate (IPCF) from Acros Organics, trifluoroacetic acid (TFA) from Oakwood Chemicals and methanesulfonic acid, diethyl chlorophosphate and zinc dust were obtained from Aldrich Chemical Company. Dry solvents were obtained from VWR and Aldrich. Fluorinated resorcinols were synthesized according to a literature procedure.^18 All of the chemicals were used as received, except zinc, which was activated prior to use by washing with 20% HCl, followed by water and acetone.
^1H, ^13C, and ^31P NMR spectra were recorded on Bruker AC 250, Bruker AC 360 and Varian 400 MHz instruments. Peptides were purified on a Varian ProStar 210 HPLC system using a preparative-scale C18 reverse-phase column. Mass spectrometric characterization was carried out using an Applied Biosystems Voyager-DE STR MALDI-TOF instrument with α-cyanohydroxycinnamic acid as the matrix. Enzyme assays with fluorogenic substrates were performed on a Molecular Devices Analyst AD multimode plate reader in fluorescence mode with an excitation filter, emission filter and dichroic mirror at 360 nm, 425 nm, and 400 nm, respectively. Enzymatic hydrolysis of the phosphotyrosine-containing peptide DADE-phpsphotyrosine-GPAA (9a) was followed by observing an increase in absorbance at 280 nm using a Varian Cary50 spectrophotometer.
Standard conditions employed to determine the kinetic constants of each substrate with YOP and TCPTP are described below. Substrates were dissolved in DMSO and diluted to the appropriate concentration in DMSO. Aliquots were taken such that each reaction had the same amount of DMSO, which never exceeded 5% of the reaction volume (usually 200 μL). The buffer used for all studies contained 50 mM HEPES, pH 7.1, 100 mM NaCl, 2 mM EDTA, 0.01% Brij 35, 1 mM dithiothreitol (DTT). Prior to each reaction, the enzyme was incubated in buffer with freshly added DTT for 10 min on ice. […] The increase in signal (absorbance or fluorescence) due to substrate hydrolysis was measured every 60 s for 30 min. […] Standard curves were prepared using authentic samples of the appropriate product, relative fluorescence or absorbance units were converted into concentration of product formed, and the resulting data was fit to the Michaelis-Menten equation, providing kinetic parameters for each substrate.

[3] = molecular target: T2, human T-cell PTP (TCPTP) (Homo sapiens, UniProt P17706); assay: Enzyme activity assay: PTP-catalyzed hydrolysis of substrates by TCPTP; conditions: pH 7.1, 30° C.
T2 construct: purchased Calbiochem
T2 sequence (P17706 1-415): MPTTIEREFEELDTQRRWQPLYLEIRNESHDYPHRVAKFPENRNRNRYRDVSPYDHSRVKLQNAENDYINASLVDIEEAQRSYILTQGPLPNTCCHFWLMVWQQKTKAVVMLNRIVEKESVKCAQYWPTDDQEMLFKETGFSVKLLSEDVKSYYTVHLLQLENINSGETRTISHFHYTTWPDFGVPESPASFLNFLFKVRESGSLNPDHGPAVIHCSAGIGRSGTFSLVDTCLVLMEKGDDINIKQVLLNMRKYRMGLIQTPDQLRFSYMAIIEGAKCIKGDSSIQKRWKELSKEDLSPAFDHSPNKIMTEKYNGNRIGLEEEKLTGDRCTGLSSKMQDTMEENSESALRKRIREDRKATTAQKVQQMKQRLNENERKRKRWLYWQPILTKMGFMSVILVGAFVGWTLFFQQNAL
Source text: as §1, with “Fluorinated resorcinols were synthesized according to a literature procedure.^18 All of the chemicals were used as received, except zinc, which was activated prior to use by washing with 20% HCl, followed by water and acetone.” left out
^1H, ^13C, and ^31P NMR spectra were recorded on Bruker AC 250, Bruker AC 360 and Varian 400 MHz instruments. […] Enzyme assays with fluorogenic substrates were performed on a Molecular Devices Analyst AD multimode plate reader in fluorescence mode with an excitation filter, emission filter and dichroic mirror at 360 nm, 425 nm, and 400 nm, respectively. Enzymatic hydrolysis of the phosphotyrosine-containing peptide DADE-phpsphotyrosine-GPAA (9a) was followed by observing an increase in absorbance at 280 nm using a Varian Cary50 spectrophotometer. […]

| phosphorylation of substrate by Csk [1] | kcat (best fit to the Michaelis-Menten equation) [3] [s⁻¹] | Km ([3]; read-out: Km (best fit to the Michaelis-Menten equation)) [µM] | Compound | kcat (best fit to the Michaelis-Menten equation) [2] [s⁻¹] | Km [2] [µM] |
| --- | --- | --- | --- | --- | --- |
| Csk indeed phosphorylated MU to MUP | – | – | Cc1cc(=O)oc2cc(O)ccc12 [MU, 4-methylumbelliferone] | – | – |
| – | – | – | Cc1cc(=O)oc2cc(OP(=O)(O)O)ccc12 [MUP] | 5.7 ± 0.5 | 800 ± 200 |
| – | – | – | C[C@H](NC(=O)[C@H](C)NC(=O)[C@@H]1CCCN1C(=O)CNC(=O)[C@H](Cc1ccc(OP(=O)(O)O)cc1)NC(=O)[C@H](CCC(=O)O)NC(=O)[C@H](CC(=O)O)NC(=O)[C@H](C)NC(=O)[C@@H](N)CC(=O)O)C(N)=O [9a, DADE-pY-GPAA-NH2] (H-DADE[pY]GPAA-NH2) | 100 ± 20 | 2700 ± 800 |
| – | 35 ± 10 | 800 ± 300 | DADE-pCAP-GPAA-NH2 [10a] | – | – |
